Key:
Format in all cases: cell-based
[1] = system: Lactococcus lactis subsp. cremoris strain MG1363; assay: Culturing in the presence of protoporphyrin IX (Example 1.2); conditions: for Concentration of lactic acid / Final pH / Number of viable cells / OD600 nm: 1% glucose, 24 h
Description: A laboratory medium (M17 supplemented with 1% glucose) is inoculated with the Lacrococcus lactis subsp. cremoris strain MG1363 in the form of a 1/1000 dilution of a saturated culture (prepared at 30° C. with no shaking). The inoculated medium contained or not protoporphyrin IX at a final concentration of 10 μg/ml (a 0.5 mg/ml stock solution is prepared by adding 100 mg of protoporphyin IX to 2 ml of 5N NaOH, to which 198 ml of water is then added; the solution is autoclaved at 120° C. for 20 minutes). For bacteria grown in medium containing protoporphyrin IX, cultures were maintained at 30° C. with shaking (250 rotations per minute) in order to ensure oxygenation, or without shaking as a control. Two other control cultures, without protoporphyin IX or without shaking, were grown at 30° C. in parallel. After 24 h of growth, aliquots are removed to measure the optical density at 600 nm (OD600 nm), the number of viable bacteria, the final pH and the concentration of lactate in the medium.

[2] = system: Lactococcus lactis subsp. cremoris strain MG1363; assay: Survival of the lactic acid bacteria during storage at 4° C. (Example 3); conditions: for Number of cells per ml: porphyrin compound and aeration, 1% glucose M17, storage at 4° C.
Description: A laboratory medium, i.e. M17 supplemented with 1% of glucose, is inoculated with Lactococcus lactis subsp. cremoris strain MG1363 in the form of a 1/1000 dilution of a saturated culture. The cultures are then divided into two equal parts, and hemin is added to one of these two cultures to give a final concentration of 10 μg/ml. […] Aliquots of the two cultures are removed regularly during the exponential growth phase in order to monitor viability, rate of growth and pH. After 24 h of growth, the cultures are placed (stored) in a 30° C. incubator without shaking, and aliquots are removed every 24 h in order to monitor the viability of the cells. The Lactococcus lactis subsp. cremoris strain MG1363 was cultured as in the experiment described in Example 2, but the storage, which is carried out 24 h after inoculation, is at 4° C. instead of at 30° C.

[3] = system: Lactococcus lactis subsp. cremoris strain MG1363; assay: Culturing in the presence of chlorophyllin (Example 1.3); conditions: cultures in the presence of chlorophyllin, not shaken
Description: A laboratory medium (M17 supplemented with 1% glucose) is inoculated with the Lactococcus lactis subsp. cremoris strain MG1363 in the form of a 1/1000 dilution of a saturated culture (prepared at 30° C. with no shaking). The inoculated medium contained or not chlorophyllin (a degradation product of chlorophyll) at a final concentration of 10 μg/ml. In order for it to be active, the chlorophyllin was incubated beforehand in an acidic medium and in the presence of traces of iron in order to replace the Cu atom with an Fe atom. This can, for example, be done as follows: a) by incubating a concentrated solution of chlorophyllin for 24 h in a laboratory medium (M17 supplemented with glucose) which was inoculated with 10^6 lactococci per ml and maintained at 30° C. for 24 h. The supernatant containing the chlorophyllin at a concentration of 100 μg/ml is filtered and then added to the culture medium so as to obtain a final concentration of 10 μg/mi. b) by incubating a concentrated solution of chlorophyllin for 24 h in M17 at a pH of between 3 and 5 (acidified with HCl) and at a temperature of 4° C., 30° C. or 60° C. The pH is then readjusted to 7. […] The pH is then readjusted to 7. […]

[4] = with protoporphyrin IX 10 μg/ml and aeration
[5] = with protoporphyrin IX 10 μg/ml but without aeration

Question: What does the source list for `C=CC1=C(C)c2cc3[nH]c(cc4nc(cc5[nH]c(cc1n2)c(C)c5CCC(=O)O)C(CCC(=O)O)=C4C)c(C)c3C=C` [protoporphyrin IX]?
Answer: production of lactic acid as share of the quantity of sugar added ([1]; cells cultured in the presence of protoporphyrin IX and oxygen): less than 40%; pH of the culture (remains stable) ([1]; protoporphyrin IX and oxygen): approximately 5.5; Concentration of lactic acid [1, 4]: 1.9 g/L; Final pH [1, 4]: 5.49; Number of viable cells [1, 4]: 6.9 ×10^9; OD600 nm [1, 4]: 4.6; Concentration of lactic acid [1, 5]: 8.2 g/L; Final pH [1, 5]: 4.53; Number of viable cells [1, 5]: 2.7 ×10^9; OD600 nm [1, 5]: 2.5; survival rate ([2]; after 2 months at 4° C., cultured with porphyrin compound under aeration): ~1%; Number of cells per ml ([2]; 0 days after culture): 6.4 × 10^9 cells per ml; Number of cells per ml ([2]; 1 day after culture): 6.2 × 10^9 cells per ml; Number of cells per ml ([2]; 2 days after culture): 5.6 × 10^9 cells per ml; Number of cells per ml ([2]; 3 days after culture): 5.4 × 10^9 cells per ml; Number of cells per ml ([2]; 7 days after culture): 4.0 × 10^9 cells per ml; Number of cells per ml ([2]; 8 days after culture): 2.8 × 10^9 cells per ml; Number of cells per ml ([2]; 9 days after culture): 1.9 × 10^9 cells per ml; Number of cells per ml ([2]; 10 days after culture): 3.9 × 10^8 cells per ml; Number of cells per ml ([2]; 13 days after culture): 1.7 × 10^8 cells per ml; Number of cells per ml ([2]; 15 days after culture): 6.0 × 10^7 cells per ml; Number of cells per ml ([2]; 22 days after culture): 5.9 × 10^7 cells per ml; Number of cells per ml ([2]; 28 days after culture): 5.4 × 10^7 cells per ml; Number of cells per ml ([2]; 36 days after culture): 5.4 × 10^7 cells per ml; Number of cells per ml ([2]; 43 days after culture): 5.3 × 10^7 cells per ml; Number of cells per ml ([2]; 50 days after culture): 4.8 × 10^7 cells per ml; Number of cells per ml ([2]; 57 days after culture): 5.3 × 10^7 cells per ml

Question: With chlorophyllin as the molecule, how does the “variation of OD600 nm and pH from the control” value [3] read?
Answer: The value was “No significant variation from the control”.

From patent US20160075991A1, “Process for Preparing Starter Cultures of Lactic Acid Bacteria” (INSTITUT NATIONAL DE LA RECHERCHE, priority 1998, published 2016)
